“And” between values parts separate entries of the source, which are not always exact repeats. Equal values may be shown once.

For experiment [1] the following is noted: following 3 months of therapy; cited from earlier work.
Another experiment concerns solid, human xenografts. The note with it: in vivo (mice); cited from earlier work.
Experiment [2] has as its system human colon cancer cell lines (LoVo). As to conditions: in vitro, including CEA-producing cell lines; cited from earlier work.
For experiment [3], the system named is aberrant crypt foci (ACF) of the colon/rectum in AOM-induced rats. In words: ACF of the colon/rectum in AOM-induced rats, Example 2. Type of experiment: in vivo, rat. Here is the method: The in vivo study of the effect on prevention of CRC in AOM (Azoxymethane) induced rats The rats are induced s.c 1× week in 2 weeks with an AOM solution. The effect of the specific treatment is evaluated due to the number of aberrant crypt foci (ACF) of the colon/rectum in the AOM-induced rats. The aberrant crypt score is evaluated by stereomicroscopy (40×) upon staining with Giemsa-solution (6 ml conc. Giemsa in 50 ml of PBS, pH 7.1). The crypt size is categorised as small, medium, large and X-large. The number of animals is 80 with 16 in each group. The medicaments are administered with the food. The section is 18 weeks from the first dosage. […] Data for weight, food and water are registered and analysed “Small” in the third column is the sum of small and medium of the first column “Large” in the third column is the sum of large and x-large the of second column

In experiment [4] the test system is stroke, acute myocardial infarction and/or cardiovascular death. As to conditions: low-dose; cited from earlier work.
[5] abbreviates: count per animal, listed as Asp 200.

With `O=C(O)c1cc(/N=N/c2ccc(S(=O)(=O)Nc3ccccn3)cc2)ccc1O` [sulphasalazine], the Relative risk reduction in experiment [1] is listed as 0.38 (0.2 to 0.7).
For `C=C1/C(=C\C=C2/CCC[C@]3(C)[C@@H]([C@H](C)CCCC(C)(C)O)CC[C@@H]23)C[C@@H](O)C[C@@H]1O` [1,25DHC, 1,25 dihydroxycholecalciferol], the “Growth of solid, human xenografts” value in the experiment with solid, human xenografts is “suppress growth”. Also, the “Growth of human colon cancer cell lines” value in experiment [2] is on record as “inhibits the growth”.
For `CC(=O)Oc1ccccc1C(=O)O` [ASA, acetylsalicylic acid], the “Effect on (large) ACF, in words” value in experiment [3] (aspirin 200 ppm without or with Ca and 1,25 DHC) is “without effect”. Also, in experiment [3] (count per animal, section 18 weeks from first dosage, listed as Asp 200), the “Small ACF, individual rat” value was 92 and 87 and 20 and 51 and 31 and 82 and 73 (2×) and 44 (2×) and 55 and 47 and 40 and 22 and 46 and 63. For the same compound, in experiment [3] (setting [5]), the “Large (sum of large and x-large) ACF, individual rat” value was 15 and 9 and 2 (3×) and 8 and 5 (2×) and 3 (3×) and 6 and 1 (2×) and 7 and 4; the “Large ACF, individual rat” value is 13 and 8 and 2 (3×) and 5 (4×) and 3 (3×) and 1 (2×) and 6 and 4; the “Medium ACF, individual rat” value was 74 and 45 and 8 and 34 and 10 and 51 and 35 and 31 and 22 and 49 and 21 and 9 and 26 and 47 and 18 and 50; the “Small (sum of small and medium) ACF, individual rat” value is 166 and 132 and 28 and 85 and 41 and 133 and 108 and 75 and 77 and 96 and 61 and 31 and 72 and 120 and 62 and 113. Further, in experiment [3] (setting [5]), the “Total ACF, individual rat” value was 181 and 141 and 30 and 93 and 43 and 138 and 111 and 78 and 80 and 102 and 62 and 33 and 79 and 125 and 66 and 114; the “X-Large ACF, individual rat” value is 2 and 1 (3×) and 0 (11×) and 3. In addition, in experiment [3] (group mean), the “Large (sum of large and x-large) ACF, Mean” value is on record as 4.75; the “Large ACF, Mean” value amounted to 4.25; the “Medium ACF, Mean” value was 33.13; the “Small (sum of small and medium) ACF, Mean” value turned out to be 87.50. Also, in experiment [3] (group mean), the “Small ACF, Mean” value stood at 54.38; the “Total ACF, Mean” value turned out to be 92.25; the “X-Large ACF, Mean” value stood at 0.50. In experiment [4], the “Relative risk-reduction in relation to stroke, acute myocardial infarction and/or cardiovascular death” value is “approx. 25%”.

The record behind these values is US6703380B2, “Prevention of cancer” (Colotech A/S, priority 1999, dated 2004).
